Experimental data as given in the supplement of paper PMC10307832.

Key:
Assay in all cases: relative viability (nuclei count vs DMSO), 5 days (fraction); higher = more cells survive
[1] = tested on: NCI-H2347
Outline: (§1)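 After 5 days of treatment, lung cancer cells in 1536-well plates were fixed and stained in a single step (final 0.05% Triton X-100, 1% formaldehyde, 1 ug/ml Hoechst) and their nuclei counted on 4× images. Treatment had been applied by pin tool the day after seeding as one drug alone or as a fixed anchor-drug dose with five library-drug doses (not always all listed) in √10 steps. Relative viability is the nuclei count of treated wells divided by that of vehicle wells, and values are medians of duplicate plates.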

[2] = tested on: EPLC-272H
Outline: as §1

[3] = tested on: H3255
Outline: as §1

[4] = tested on: NCI-H650
Outline: as §1

[5] = tested on: 201T
Outline: as §1

[6] = tested on: COR-L 105
Outline: as §1

[7] = tested on: NCI-H2087
Outline: as §1

[8] = tested on: NCI-H2126
Outline: as §1

[9] = tested on: NCI-H2405
Outline: as §1

[10] = tested on: HCC-78
Outline: as §1

[11] = tested on: LC-2-ad
Outline: as §1

[12] = tested on: NCI-H1666
Outline: as §1

[13] = tested on: LCLC-97TM1
Outline: as §1

[14] = tested on: NCI-H23
Outline: as §1

[15] = tested on: NCI-H322M
Outline: as §1

[16] = tested on: HCC-827
Outline: as §1

[17] = tested on: NCI-H1915
Outline: as §1

[18] = tested on: NCI-H520
Outline: as §1

[19] = tested on: NCI-H661
Outline: as §1

[20] = tested on: PC-14
Outline: as §1

[21] = tested on: RERF-LC-KJ
Outline: as §1

[22] = tested on: NCI-H647
Outline: as §1

In the case of `O=C(O)c1ccc(-c2c[nH]c3ncc(-c4ccccc4)cc23)cc1C1CCCC1` + Cc1nc(NC(=O)N2CCC[C@H]2C(N)=O)sc1-c1ccnc(C(C)(C)C(F)(F)F)c1 [Alpelisib] (partner 2 µM), the relative viability ([1]; first compound 0.04 µM) is reported as 1.12, the relative viability ([1]; first compound 0.1265 µM) is reported as 1.13 and the relative viability ([1]; first compound 0.4 µM) is reported as 1.11. For the same compound, the relative viability ([1]; first compound 1.265 µM) was 0.81, the relative viability ([2]; first compound 0.04 µM) was 0.79 and the relative viability ([2]; first compound 0.1265 µM) was 0.974. The relative viability ([2]; first compound 0.4 µM) was 0.949, the relative viability ([2]; first compound 1.265 µM) was 0.633 and the relative viability ([3]; first compound 0.04 µM) was 0.931. The relative viability ([3]; first compound 0.1265 µM) was 0.776, the relative viability ([3]; first compound 0.4 µM) was 0.715 and the relative viability ([3]; first compound 1.265 µM) was 0.769. It also gave a relative viability ([4]; first compound 0.04 µM) of 1.19, a relative viability ([4]; first compound 0.1265 µM) of 1.13 and a relative viability ([4]; first compound 0.4 µM) of 0.928. It also gave a relative viability ([4]; first compound 1.265 µM) of 0.737, a relative viability ([5]; first compound 0.04 µM) of 1.01 and a relative viability ([5]; first compound 0.1265 µM) of 1. The relative viability ([5]; first compound 0.4 µM) was 0.993, the relative viability ([5]; first compound 1.265 µM) was 0.935 and the relative viability ([6]; first compound 0.04 µM) was 0.893. It also gave a relative viability ([6]; first compound 0.1265 µM) of 1.02, a relative viability ([6]; first compound 0.4 µM) of 1.04 and a relative viability ([6]; first compound 1.265 µM) of 0.79. The relative viability ([7]; first compound 0.04 µM) was 1.01, the relative viability ([7]; first compound 0.1265 µM) was 1.06 and the relative viability ([7]; first compound 0.4 µM) was 1.08. It also gave a relative viability ([7]; first compound 1.265 µM) of 0.844, a relative viability ([8]; first compound 0.04 µM) of 0.787 and a relative viability ([8]; first compound 0.1265 µM) of 0.76. For the same compound, the relative viability ([8]; first compound 0.4 µM) was 0.696, the relative viability ([8]; first compound 1.265 µM) was 0.629 and the relative viability ([9]; first compound 0.04 µM) was 0.925. The relative viability ([9]; first compound 0.1265 µM) was 0.746, the relative viability ([9]; first compound 0.4 µM) was 0.796 and the relative viability ([9]; first compound 1.265 µM) was 0.591. For the same compound, the relative viability ([10]; first compound 0.04 µM) was 0.397, the relative viability ([10]; first compound 0.1265 µM) was 0.361 and the relative viability ([10]; first compound 0.4 µM) was 0.456. It also gave a relative viability ([10]; first compound 1.265 µM) of 0.321, a relative viability ([11]; first compound 0.04 µM) of 0.86 and a relative viability ([11]; first compound 0.1265 µM) of 0.906. The relative viability ([11]; first compound 0.4 µM) was 0.827, the relative viability ([11]; first compound 1.265 µM) was 0.573 and the relative viability ([12]; first compound 0.04 µM) was 0.965. For the same compound, the relative viability ([12]; first compound 0.1265 µM) was 0.897, the relative viability ([12]; first compound 0.4 µM) was 0.892 and the relative viability ([12]; first compound 1.265 µM) was 0.367. It also gave a relative viability ([13]; first compound 0.04 µM) of 0.278, a relative viability ([13]; first compound 0.1265 µM) of 0.313 and a relative viability ([13]; first compound 0.4 µM) of 0.239. The relative viability ([13]; first compound 1.265 µM) was 0.264, the relative viability ([14]; first compound 0.04 µM) was 0.61 and the relative viability ([14]; first compound 0.1265 µM) was 0.852. For the same compound, the relative viability ([14]; first compound 0.4 µM) was 0.672, the relative viability ([14]; first compound 1.265 µM) was 0.423 and the relative viability ([15]; first compound 0.04 µM) was 0.979. The relative viability ([15]; first compound 0.1265 µM) was 1, the relative viability ([15]; first compound 0.4 µM) was 0.834 and the relative viability ([15]; first compound 1.265 µM) was 0.703. It also gave a relative viability ([16]; first compound 0.04 µM) of 0.847, a relative viability ([16]; first compound 0.1265 µM) of 0.988 and a relative viability ([16]; first compound 0.4 µM) of 0.89. It also gave a relative viability ([16]; first compound 1.265 µM) of 0.747, a relative viability ([17]; first compound 0.04 µM) of 1.13 and a relative viability ([17]; first compound 0.1265 µM) of 1.07. The relative viability ([17]; first compound 0.4 µM) was 1.04, the relative viability ([17]; first compound 1.265 µM) was 0.737 and the relative viability ([18]; first compound 0.04 µM) was 0.836. The relative viability ([18]; first compound 0.1265 µM) was 1.09, the relative viability ([18]; first compound 0.4 µM) was 0.866 and the relative viability ([18]; first compound 1.265 µM) was 0.852. The relative viability ([19]; first compound 0.04 µM) was 0.48, the relative viability ([19]; first compound 0.1265 µM) was 0.676 and the relative viability ([19]; first compound 0.4 µM) was 0.675. For the same compound, the relative viability ([19]; first compound 1.265 µM) was 0.703, the relative viability ([20]; first compound 0.04 µM) was 0.933 and the relative viability ([20]; first compound 0.1265 µM) was 0.897. For the same compound, the relative viability ([20]; first compound 0.4 µM) was 0.971, the relative viability ([20]; first compound 1.265 µM) was 0.886 and the relative viability ([21]; first compound 0.04 µM) was 0.838. For the same compound, the relative viability ([21]; first compound 0.1265 µM) was 0.762, the relative viability ([21]; first compound 0.4 µM) was 0.869 and the relative viability ([21]; first compound 1.265 µM) was 0.82. For the same compound, the relative viability ([22]; first compound 0.04 µM) was 1.14, the relative viability ([22]; first compound 0.1265 µM) was 1.24 and the relative viability ([22]; first compound 0.4 µM) was 1.02. The relative viability ([22]; first compound 1.265 µM) was 0.766.
